Results taken from ChEMBL document CHEMBL1201862, “PubChem BioAssay data set” (2004).
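Exposure lasted 48 hours, with cells grown in 96-well plates and compounds tested at five concentrations. GI50 = concentration required for 50% inhibition of growth.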 The source made the active and inactive calls. No stated cut-off is given here; in the data, active = GI50 up to about 1.1 µM and inactive = higher.

Legend:
Test in all cases: inhibition of tumour cell growth, NCI panel, 48 h
[1] = test system: RXF 393
[2] = test system: SF-295
[3] = test system: KM12
[4] = test system: U-251
[5] = test system: A549
[6] = test system: UO-31
[7] = test system: SN12C
[8] = test system: LOX IMVI
[9] = test system: CAKI-1
[10] = test system: MDA-N
[11] = test system: SNB-75
[12] = test system: SK-MEL-28
[13] = test system: SF-539
[14] = test system: Malme-3M
[15] = test system: HT-29
[16] = test system: HCC 2998
[17] = test system: EKVX
[18] = test system: T47D
[19] = test system: NCI-H226
[20] = test system: SK-MEL-2

Measured: GI50

COc1cc(C2S/C(=C/c3ccccc3)C(=O)N2c2ccc([N+](=O)[O-])cc2)cc(OC)c1OC (stereo not given)
inactive: [1] > 100 µM | [2] 58.1 µM | [3] 28.6 µM | [4] > 100 µM | [5] > 96.4 µM | [6] 47 µM | [7] > 90.6 µM | [8] 19 µM | [9] 97.1 µM | [10] > 56.8 µM | [11] > 100 µM | [12] > 100 µM | [13] > 100 µM | [14] > 100 µM | [15] > 39.6 µM | [16] > 100 µM | [17] 39.6 µM | [18] 40.9 µM | [19] 58.9 µM | [20] > 91.4 µM

COc1cc2c(c(OC)c1)C(=O)O[C@H](C)CCCC/C=C/C2
inactive: [1] 9.95 µM | [2] 13.6 µM | [3] 9.35 µM | [4] 9.79 µM | [5] 30.6 µM | [6] 13.5 µM | [7] 7.14 µM | [8] 4.73 µM | [9] 10.4 µM | [10] 8.63 µM | [11] 14.1 µM | [12] 23.2 µM | [13] 10.9 µM | [14] 13.1 µM | [15] 35 µM | [16] 15.8 µM | [17] 11.7 µM | [18] 9.16 µM | [19] 45.6 µM | [20] 12.1 µM

O=c1oc2ccc3ccccc3c2cc1-c1nc2ccc([N+](=O)[O-])cc2o1
inactive: [1] 4.72 µM | [2] 13.5 µM | [3] > 59.2 µM | [4] 28.7 µM | [5] 14.7 µM | [6] > 49.2 µM | [7] 97.5 µM | [8] 22.9 µM | [9] > 44.7 µM | [10] > 100 µM | [11] 14.8 µM | [12] > 100 µM | [13] 10.4 µM | [14] 59.4 µM | [15] > 42.7 µM | [16] > 100 µM | [17] 31.3 µM | [18] 66.8 µM | [19] > 51.2 µM | [20] > 64.9 µM

OC1c2c(ccc3c2CCC3)CC12Cc1ccccc1C2 (stereo not given)
inactive: [1] 13.8 µM | [2] 17.1 µM | [3] 14.9 µM | [4] 15.9 µM | [5] 17.1 µM | [6] 14.2 µM | [7] 15.3 µM | [8] 15.9 µM | [9] 16.7 µM | [10] 15.5 µM | [11] 13.8 µM | [12] 16.6 µM | [13] 21.3 µM | [14] 12 µM | [15] 17 µM | [16] 13.5 µM | [17] 16.4 µM | [18] 16.5 µM | [19] 13.4 µM | [20] 15.3 µM

COc1cc(CNc2c3ccccc3nc3ccccc23)cc(OC)c1OC
inactive: [1] 2.86 µM | [2] 3.56 µM | [3] 6.21 µM | [4] 5.08 µM | [5] 3.32 µM | [6] 3.05 µM | [7] 2.88 µM | [8] 2.39 µM | [9] 2.74 µM | [10] 2.76 µM | [11] 4.02 µM | [12] 5.04 µM | [13] 3.95 µM | [14] 3.71 µM | [15] 2.49 µM | [16] 2.78 µM | [17] 5.78 µM | [18] 6.38 µM | [19] 3.15 µM | [20] 2.23 µM

COC(=O)[C@H](CCSC)NC(=O)c1ccc(CNC(=O)/C(C)=C/c2ccccc2)cc1
inactive: [1] 15.8 µM | [2] 48.5 µM | [3] 82.4 µM | [4] 31 µM | [5] 52 µM | [6] 43.5 µM | [7] 88.1 µM | [8] 33.1 µM | [9] 30.6 µM | [10] 55.6 µM | [11] 3.81 µM | [12] 24.7 µM | [13] 26.5 µM | [14] 15.3 µM | [15] 21 µM | [16] 9.48 µM | [17] 83.2 µM | [18] 21.8 µM | [19] > 100 µM | [20] 20.7 µM

NCC(Cc1ccccc1)P(=O)(O)O (stereo not given)
inactive: [1] > 100 µM | [2] > 100 µM | [3] > 100 µM | [4] > 100 µM | [5] > 100 µM | [6] > 100 µM | [7] > 100 µM | [8] > 100 µM | [9] > 100 µM | [10] > 100 µM | [11] > 100 µM | [12] > 100 µM | [13] > 100 µM | [14] > 100 µM | [15] > 100 µM | [16] > 100 µM | [17] > 100 µM | [18] > 100 µM | [19] > 100 µM | [20] > 100 µM

C[C@]12C=CC(=O)C=C1[C@@H](F)C[C@H]1[C@@H]3CC[C@](O)(C(=O)CO)[C@@]3(C)C[C@H](O)[C@@]12F
inactive: [1] > 85.5 µM | [2] > 100 µM | [3] > 100 µM | [4] > 100 µM | [5] > 100 µM | [6] > 100 µM | [7] > 100 µM | [8] > 100 µM | [9] > 100 µM | [10] > 100 µM | [11] > 100 µM | [12] > 100 µM | [13] > 100 µM | [14] > 100 µM | [15] > 100 µM | [16] > 100 µM | [17] > 64.4 µM | [18] > 100 µM | [19] 52.6 µM | [20] > 100 µM

C=C(C)C(CC=C(C)C)Cc1c(O)cc(OC)c2c1OC(c1ccc(O)cc1O)C(O)C2=O (stereo not given)
inactive: [1] 19 µM | [2] 15 µM | [3] 12 µM | [4] 14.5 µM | [5] 19.5 µM | [6] 15.9 µM | [7] 20.5 µM | [8] 20 µM | [9] 13.6 µM | [10] 14.9 µM | [11] 17.2 µM | [12] 21.1 µM | [13] 15.9 µM | [14] 17.7 µM | [15] 20.7 µM | [16] 16.8 µM | [17] 16.3 µM | [18] 13.8 µM | [19] 18.3 µM | [20] 19.5 µM

Clc1ccc(CSCc2ccc(Cl)cc2Cl)c(Cl)c1
inactive: [1] 20 µM | [2] 37.3 µM | [3] 40.2 µM | [4] 54 µM | [5] 34.3 µM | [6] > 100 µM | [7] > 100 µM | [8] 36.1 µM | [9] 86.1 µM | [10] 38.8 µM | [11] 48.3 µM | [12] 79.6 µM | [13] > 100 µM | [14] 28.2 µM | [15] 29.9 µM | [16] 26.3 µM | [17] 57.5 µM | [18] 22.5 µM | [19] > 100 µM | [20] 21.3 µM

C=Cc1nc2c(Cl)ncnc2n1Cc1ccccc1
inactive: [1] 2.69 µM | [2] 15.6 µM | [3] 2.84 µM | [4] 10.5 µM | [5] 11.2 µM | [6] 2.51 µM | [7] 6.43 µM | [8] 2.76 µM | [9] 1.91 µM | [10] 3.12 µM | [11] 13.6 µM | [12] 3.1 µM | [13] 2.13 µM | [14] 4.03 µM | [15] 2.62 µM | [16] 2.61 µM | [17] 4.7 µM | [18] 2.59 µM | [19] 3.08 µM | [20] 12.1 µM

COc1cc2cc(C(=O)N3CC(CCl)c4c3cc(N)c3ccccc43)[nH]c2cc1OCCN(C)C (stereo not given)
active: [1] < 0.005 µM | [2] < 0.005 µM | [3] < 0.005 µM | [4] < 0.005 µM | [5] < 0.005 µM | [6] < 0.005 µM | [7] 0.00597 µM | [8] < 0.005 µM | [9] < 0.005 µM | [10] < 0.005 µM | [11] < 0.005 µM | [12] 0.00705 µM | [13] < 0.005 µM | [14] 0.0053 µM | [15] 0.5 µM | [16] < 0.005 µM | [17] 0.00809 µM | [18] < 0.005 µM | [19] 0.00528 µM | [20] < 0.005 µM

CCOC(=O)c1nnsc1NC(=O)NN
inactive: [1] > 100 µM | [2] > 100 µM | [3] > 100 µM | [4] > 100 µM | [5] > 100 µM | [6] > 100 µM | [7] > 100 µM | [8] 82.2 µM | [9] > 100 µM | [10] > 100 µM | [11] > 100 µM | [12] > 100 µM | [13] > 100 µM | [14] > 100 µM | [15] > 100 µM | [16] > 100 µM | [17] > 100 µM | [18] > 100 µM | [19] > 100 µM | [20] > 100 µM

C(=C\c1ccccc1)/C=N/c1nc2cc3sc(/N=C/C=C/c4ccccc4)nc3cc2s1
inactive: [1] > 100 µM | [2] > 78 µM | [3] 76.2 µM | [4] 25 µM | [5] 12.1 µM | [6] 34.4 µM | [7] 69.2 µM | [8] 29.9 µM | [9] 70.6 µM | [10] > 72.1 µM | [11] > 100 µM | [12] > 100 µM | [13] > 100 µM | [14] > 100 µM | [15] 30.6 µM | [16] > 100 µM | [17] 73.1 µM | [18] 47 µM | [20] > 100 µM
active: [19] 0.813 µM
